# Results: patent US20240409585A1, “MACROCYCLIC IMMUNOMODULATORS” (priority 2021, published 2024)
# Numbered stars: 1 amine (or outer) side, 2 acyl side, 3 side chain; on linkers, the order of the positions; unused ones are H or OH. Bridge positions count the residues as written; N and C are the ends. Square brackets hold non-standard residues; d marks the D form. Peptide text beside a SMILES is read from it. * marks the point of attachment. X51 = O=C([C@H](Cc1cccc(-c2cccc(S(=O)(=O)N3CCOCC3)c2)c1)N[*:1])[*:2]; Bip(4'-COOH) = N[C@@H](Cc1ccc(-c2ccc(C(=O)O)cc2)cc1)C(=O)O; Bip(4'-NHAc) = CC(=O)Nc1ccc(-c2ccc(C[C@H](N)C(=O)O)cc2)cc1; Phe(3-CF3) = N[C@@H](Cc1cccc(C(F)(F)F)c1)C(=O)O; Ala(morpholin-4-yl) = N[C@@H](CN1CCOCC1)C(=O)O; Phe(4-CONH2) = NC(=O)c1ccc(C[C@H](N)C(=O)O)cc1; Phe(4-COOH) = N[C@@H](Cc1ccc(C(=O)O)cc1)C(=O)O; Bip = N[C@@H](Cc1ccc(-c2ccccc2)cc1)C(=O)O; Phe(3-Cl) = N[C@@H](Cc1cccc(Cl)c1)C(=O)O; Abu(3R-NH2) = C[C@@H](N)[C@H](N)C(=O)O; Phe(3-Me) = Cc1cccc(C[C@H](N)C(=O)O)c1; Val(3-OH) = CC(C)(O)[C@H](N)C(=O)O; X11 = CC(N)[C@H](N[*:1])C(=O)[*:2]; Ala(cPr) = N[C@@H](CC1CC1)C(=O)O; hPhe = N[C@@H](CCc1ccccc1)C(=O)O; Cha = N[C@@H](CC1CCCCC1)C(=O)O; Carboxymethyl = O=C(O)C*; NMeA = CN[C@@H](C)C(=O)O; Orn = NCCC[C@H](N)C(=O)O; Dab = NCC[C@H](N)C(=O)O
# Molecular target: T1, Alexa fluor-647 labeled human PD-L1-Ig binding to Jurkat cell line over-expressing human PD-1 (Homo sapiens, UniProt Q15116)
# T1 construct: expressed in transfected cells; host or cells: Jurkat
# T1 sequence (Q15116 25-288): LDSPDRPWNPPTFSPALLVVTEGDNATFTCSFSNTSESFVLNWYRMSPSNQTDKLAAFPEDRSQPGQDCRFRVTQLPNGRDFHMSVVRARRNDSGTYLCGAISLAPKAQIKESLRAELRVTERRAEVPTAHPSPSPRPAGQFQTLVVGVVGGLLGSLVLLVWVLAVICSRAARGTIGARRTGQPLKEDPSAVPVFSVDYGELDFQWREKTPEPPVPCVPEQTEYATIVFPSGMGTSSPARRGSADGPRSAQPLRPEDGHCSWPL
# Experiment: Jurkat-PD-1 Cell Binding High-Content Screening Assay (CBA): Method 3 (Alexa fluor-647 labeled PD-L1-Ig)
# Conditions: Jurkat-PD-1 cells, Alexa fluor-647 labeled PD-L1-Ig 177 nM; head μM; read-out: CBA Method 3 μM
# How it was run: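 Jurkat cells over-expressing human PD-1 in RPMI/10% FCS were preincubated 2 h at 37 °C with compound, then exposed 1 h to Alexa fluor-647 labeled human PD-L1-Ig (177 nM final). Cells fixed in 4% paraformaldehyde with Hoechst 33342 and binding quantified by high-content imaging.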
row,Structure (SMILES),IC50
1,Cc1cccc(C[C@@H]2NC(=O)[C@H](CC(=O)O)NC(=O)[C@H](Cc3ccc(-c4ccc(C(=O)O)cc4)cc3)NC(=O)[C@H](CN3CCOCC3)NC(=O)CSC[C@@H](C(=O)N[C@@H](CCN)C(N)=O)NC(=O)[C@H](CCC(=O)O)NC(=O)[C@H](C(C)C)NC(=O)[C@H](CC3CCCCC3)NC(=O)[C@H](CC(N)=O)NC(=O)[C@@H](CC(C)C)NC(=O)[C@H](C)N(C)C(=O)[C@H](Cc3ccc(OCC(=O)O)cc3)NC(=O)[C@H](Cc3ccc(-c4ccccc4)cc3)NC(=O)[C@H](Cc3ccc(-c4ccc(C(=O)O)cc4)cc3)NC2=O)c1 [Example 5128] ({CH2CO}-[Ala(morpholin-4-yl)][Bip(4'-COOH)]D[Phe(3-Me)][Bip(4'-COOH)][Bip]Y(Carboxymethyl)[NMeA][dL]N[Cha]VEC[Dab]-NH2; thioether N-14),0.03 µM
2,Cc1cccc(C[C@@H]2NC(=O)[C@H](CC(=O)O)NC(=O)[C@H](Cc3ccc(-c4ccc(C(=O)O)cc4)cc3)NC(=O)[C@H](CN3CCOCC3)NC(=O)CSC[C@@H](C(=O)N[C@@H](CCN)C(N)=O)NC(=O)[C@H](CCC(=O)O)NC(=O)[C@H](C(C)C)NC(=O)[C@H](CC3CCCCC3)NC(=O)[C@H](CCN)NC(=O)[C@@H](CC(C)C)NC(=O)[C@H](C)N(C)C(=O)[C@H](Cc3ccc(C(=O)O)cc3)NC(=O)[C@H](Cc3ccc(-c4ccccc4)cc3)NC(=O)[C@H](Cc3ccc(-c4ccc(C(=O)O)cc4)cc3)NC2=O)c1 [Example 5093] ({CH2CO}-[Ala(morpholin-4-yl)][Bip(4'-COOH)]D[Phe(3-Me)][Bip(4'-COOH)][Bip][Phe(4-COOH)][NMeA][dL][Dab][Cha]VEC[Dab]-NH2; thioether N-14),0.16 µM
3,CC(C)C[C@H]1NC(=O)[C@H](C)N(C)C(=O)[C@H](Cc2ccc(C(N)=O)cc2)NC(=O)[C@H](Cc2ccc(-c3ccccc3)cc2)NC(=O)[C@H](Cc2ccc(OCC(=O)O)cc2)NC(=O)[C@H](Cc2cccc(C(F)(F)F)c2)NC(=O)[C@H](CC(=O)O)NC(=O)[C@H](Cc2ccc(C(=O)O)cc2)NC(=O)[C@H](C(C)N)NC(=O)CSC[C@@H](C(=O)N[C@@H](CCN)C(N)=O)NC(=O)[C@H](CO)NC(=O)[C@H](C(C)(C)O)NC(=O)[C@H](CC2CCCCC2)NC(=O)[C@H](CCN)NC1=O (stereo partly drawn) [Example 5147] ({CH2CO}-[X11][Phe(4-COOH)]D[Phe(3-CF3)]Y(Carboxymethyl)[Bip][Phe(4-CONH2)][NMeA][dL][Dab][Cha][Val(3-OH)]SC[Dab]-NH2; thioether N-14),0.01 µM
4,Cc1cccc(C[C@@H]2NC(=O)[C@H](CC(=O)O)NC(=O)[C@H](Cc3ccc(OCC(=O)O)cc3)NC(=O)[C@H](CN3CCOCC3)NC(=O)CSC[C@@H](C(=O)N[C@@H](CCN)C(N)=O)NC(=O)[C@H](CCCN)NC(=O)[C@H](C(C)C)NC(=O)[C@H](CC3CCCCC3)NC(=O)[C@H](CCN)NC(=O)[C@@H](CC(C)C)NC(=O)[C@H](C)N(C)C(=O)[C@H](CCC(N)=O)NC(=O)[C@H](Cc3ccc(-c4ccccc4)cc3)NC(=O)[C@H](Cc3cccc(-c4cccc(S(=O)(=O)N5CCOCC5)c4)c3)NC2=O)c1 [Example 5106] ({CH2CO}-[Ala(morpholin-4-yl)]Y(Carboxymethyl)D[Phe(3-Me)][X51][Bip]Q[NMeA][dL][Dab][Cha]V[Orn]C[Dab]-NH2; thioether N-14),0.06 µM
5,CC(C)C[C@H]1NC(=O)[C@H](C)N(C)C(=O)[C@H](Cc2ccc(C(=O)O)cc2)NC(=O)[C@H](Cc2ccc(-c3ccccc3)cc2)NC(=O)[C@H](Cc2ccc(-c3ccc(C(=O)O)cc3)cc2)NC(=O)[C@H](Cc2cccc(C(F)(F)F)c2)NC(=O)[C@H](CC(=O)O)NC(=O)[C@H](Cc2ccc(C(=O)O)cc2)NC(=O)[C@H](Cc2ccc(OCC(=O)O)cc2)NC(=O)CSC[C@@H](C(=O)N[C@@H](CCN)C(N)=O)NC(=O)[C@H](CCC(=O)O)NC(=O)[C@H](C(C)C)NC(=O)[C@H](CC2CCCCC2)NC(=O)[C@H](CCN)NC1=O [Example 5164] ({CH2CO}-Y(Carboxymethyl)[Phe(4-COOH)]D[Phe(3-CF3)][Bip(4'-COOH)][Bip][Phe(4-COOH)][NMeA][dL][Dab][Cha]VEC[Dab]-NH2; thioether N-14),0.15 µM

# The next lines start with the values.
row,IC50,Structure (SMILES)
1,0.42 µM,CC(C)C[C@H]1NC(=O)[C@H](C)N(C)C(=O)[C@H](CCC(N)=O)NC(=O)[C@H](Cc2ccc(-c3ccccc3)cc2)NC(=O)[C@H](CCc2ccccc2)NC(=O)[C@H](Cc2cccc(C(F)(F)F)c2)NC(=O)[C@H](CC(=O)O)NC(=O)[C@H](CCC(N)=O)NC(=O)[C@H](CC2CCCCC2)NC(=O)CSC[C@@H](C(=O)N[C@@H](CCN)C(N)=O)NC(=O)[C@H](CCCN)NC(=O)[C@H](C(C)C)NC(=O)[C@H](CC2CCCCC2)NC(=O)[C@H](CCN)NC1=O [Example 5246] ({CH2CO}-[Cha]QD[Phe(3-CF3)][hPhe][Bip]Q[NMeA][dL][Dab][Cha]V[Orn]C[Dab]-NH2; thioether N-14)
2,0.15 µM,Cc1cccc(C[C@@H]2NC(=O)[C@H](CC(=O)O)NC(=O)[C@H](Cc3ccc(OCC(=O)O)cc3)NC(=O)[C@H](CC3CCCCC3)NC(=O)CSC[C@@H](C(=O)N[C@@H](CCN)C(N)=O)NC(=O)[C@H](CCCN)NC(=O)[C@H](C(C)C)NC(=O)[C@H](CC3CC3)NC(=O)[C@H](CCN)NC(=O)[C@@H](CC(C)C)NC(=O)[C@H](C)N(C)C(=O)[C@H](CCC(N)=O)NC(=O)[C@H](Cc3ccc(-c4ccccc4)cc3)NC(=O)[C@H](Cc3ccc(C(=O)O)cc3)NC2=O)c1 [Example 5192] ({CH2CO}-[Cha]Y(Carboxymethyl)D[Phe(3-Me)][Phe(4-COOH)][Bip]Q[NMeA][dL][Dab][Ala(cPr)]V[Orn]C[Dab]-NH2; thioether N-14)

# Same assay, conditions: Jurkat-PD-1 cells, Alexa fluor-647 labeled PD-L1-Ig 177 nM; nM; read-out: CBA Method 3
row,IC50,Structure (SMILES)
1,0.0046 µM,CC(C)C[C@H]1NC(=O)[C@H](C)N(C)C(=O)[C@H](CCC(N)=O)NC(=O)[C@H](Cc2ccc(-c3ccccc3)cc2)NC(=O)[C@H](CCc2ccccc2)NC(=O)[C@H](Cc2cccc(C(F)(F)F)c2)NC(=O)[C@H](CC(=O)N[C@@H](CC(=O)O)C(=O)O)NC(=O)[C@H](Cc2ccc(OCC(=O)O)cc2)NC(=O)[C@H](CN2CCOCC2)NC(=O)CSC[C@@H](C(=O)N[C@@H](CCN)C(N)=O)NC(=O)[C@H](CCCN)NC(=O)[C@H](C(C)C)NC(=O)[C@H](CC2CCCCC2)NC(=O)[C@H](CCN)NC1=O [Example 5280] ({CH2CO}-[Ala(morpholin-4-yl)]Y(Carboxymethyl)D(Asp)[Phe(3-CF3)][hPhe][Bip]Q[NMeA][dL][Dab][Cha]V[Orn]C[Dab]-NH2; thioether N-14)
2,0.001 µM,CC(C)C[C@H]1NC(=O)[C@H](C)N(C)C(=O)[C@H](CCC(N)=O)NC(=O)[C@H](Cc2ccc(-c3ccccc3)cc2)NC(=O)[C@H](CCc2ccccc2)NC(=O)[C@H](Cc2cccc(C(F)(F)F)c2)NC(=O)[C@H](CC(=O)O)NC(=O)[C@H](Cc2ccc(OCC(=O)O)cc2)NC(=O)[C@H]([C@@H](C)N)NC(=O)CSC[C@@H](C(=O)N[C@@H](CCN)C(N)=O)NC(=O)[C@H](CCC(=O)O)NC(=O)[C@H](C(C)C)NC(=O)[C@H](CC2CCCCC2)NC(=O)[C@H](CCN)NC1=O [Example 5215] ({CH2CO}-[Abu(3R-NH2)]Y(Carboxymethyl)D[Phe(3-CF3)][hPhe][Bip]Q[NMeA][dL][Dab][Cha]VEC[Dab]-NH2; thioether N-14)
3,0.0005 µM,CC(=O)Nc1ccc(-c2ccc(C[C@@H]3NC(=O)[C@H](Cc4cccc(C(F)(F)F)c4)NC(=O)[C@H](CC(=O)O)NC(=O)[C@H](Cc4ccc(C(=O)O)cc4)NC(=O)[C@H]([C@@H](C)N)NC(=O)CSC[C@@H](C(=O)N[C@@H](CCN)C(N)=O)NC(=O)[C@H](CCC(=O)O)NC(=O)[C@H](C(C)C)NC(=O)[C@H](CC4CCCCC4)NC(=O)[C@H](CCN)NC(=O)[C@@H](CC(C)C)NC(=O)[C@H](C)N(C)C(=O)[C@H](Cc4ccc(OCC(=O)O)cc4)NC(=O)[C@H](Cc4ccc(-c5ccccc5)cc4)NC3=O)cc2)cc1 [Example 5162] ({CH2CO}-[Abu(3R-NH2)][Phe(4-COOH)]D[Phe(3-CF3)][Bip(4'-NHAc)][Bip]Y(Carboxymethyl)[NMeA][dL][Dab][Cha]VEC[Dab]-NH2; thioether N-14)
4,0.0018 µM,Cc1cccc(C[C@@H]2NC(=O)[C@H](CC(=O)O)NC(=O)[C@H](Cc3ccc(OCC(=O)O)cc3)NC(=O)[C@H](Cc3cccc(Cl)c3)NC(=O)CSC[C@@H](C(=O)N[C@@H](CCN)C(N)=O)NC(=O)[C@H](CCCN)NC(=O)[C@H](C(C)C)NC(=O)[C@H](CC3CCCCC3)NC(=O)[C@H](CCN)NC(=O)[C@@H](CC(C)C)NC(=O)[C@H](C)N(C)C(=O)[C@H](CCC(N)=O)NC(=O)[C@H](Cc3ccc(-c4ccccc4)cc3)NC(=O)[C@H](Cc3ccc(C(=O)O)cc3)NC2=O)c1 [Example 5286] ({CH2CO}-[Phe(3-Cl)]Y(Carboxymethyl)D[Phe(3-Me)][Phe(4-COOH)][Bip]Q[NMeA][dL][Dab][Cha]V[Orn]C[Dab]-NH2; thioether N-14)
5,0.0023 µM,Cc1cccc(C[C@@H]2NC(=O)[C@H](CC(=O)O)NC(=O)[C@H](Cc3ccc(OCC(=O)O)cc3)NC(=O)[C@H](CCCNC(=N)N)NC(=O)CSC[C@@H](C(=O)N[C@@H](CCN)C(N)=O)NC(=O)[C@H](CCCN)NC(=O)[C@H](C(C)C)NC(=O)[C@H](CC3CCCCC3)NC(=O)[C@H](CCN)NC(=O)[C@@H](CC(C)C)NC(=O)[C@H](C)N(C)C(=O)[C@H](CCC(N)=O)NC(=O)[C@H](Cc3ccc(-c4ccccc4)cc3)NC(=O)[C@H](Cc3ccc(C(=O)O)cc3)NC2=O)c1 [Example 5183] ({CH2CO}-RY(Carboxymethyl)D[Phe(3-Me)][Phe(4-COOH)][Bip]Q[NMeA][dL][Dab][Cha]V[Orn]C[Dab]-NH2; thioether N-14)
